Drawing on PubChem BioAssay (NCI), this text covers TGI and GI50 for 15 molecules.

Test systems include U251 CNS; SW-620 colon; TK-10 renal; HOP-92 NSCLC; SN12C renal; MALME-3M melanoma; HS 578T breast; EKVX NSCLC; SK-OV-3 ovarian; DU-145 prostate; HCC-2998 colon; SR leukemia; MOLT-4 leukemia; K-562 leukemia; MCF7 breast.
Test in all cases: NCI-60 cell line screen, 48 h

Values joined by “and” are separate entries in the source; they are usually repeats but may differ in a detail not shown here. Identical values can stand only once.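 48-hour exposure; five concentrations; linearly interpolated endpoints. GI50 marks 50% less growth. At the TGI there is no net growth.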 *1 amine or outer side, *2 acyl side, *3 side chain or, on linkers, in order; H or OH if unused. Where a SMILES comes first, the peptide text is derived from it. Bridges are numbered along the chain shown (N, C = ends). [ ]: non-standard residue; d: D form. X35 = CC[C@H](C)[C@@H](N[*:1])[C@@H](O)CC(=O)O[C@H](C(=O)[C@H](C)C(=O)[*:2])C(C)C; NMeY = CN[C@@H](Cc1ccc(O)cc1)C(=O)O

As to `CCOC(=O)[C@@H]1[C@@H](c2ccccc2)N(C)O[C@@]1(c1ccccc1)C(F)(F)F`, the TGI in the experiment on U251 CNS, in the experiment on SW-620 colon, with TK-10 renal, with HOP-92 NSCLC, with SN12C renal and with MALME-3M melanoma was more than 100 µM throughout. The TGI in the experiment with HS 578T breast, in the experiment on EKVX NSCLC, in the experiment with SK-OV-3 ovarian and with DU-145 prostate was more than 100 µM in each case.
Turning to `COC(=O)[C@@H]1CN(C(=O)CCc2ccccc2)C(=O)N1`, the TGI in the experiment with U251 CNS, in the experiment with HCC-2998 colon, with SW-620 colon, in the experiment with TK-10 renal, with HOP-92 NSCLC and in the experiment on SR leukemia was more than 100 µM each time. Also, the TGI in the experiment with MOLT-4 leukemia, in the experiment on SN12C renal, with K-562 leukemia, in the experiment with MALME-3M melanoma, in the experiment with HS 578T breast and with EKVX NSCLC was more than 100 µM in each case. Also, the TGI with SK-OV-3 ovarian and with DU-145 prostate was more than 100 µM throughout.
For the molecule `C=C(C)[C@H]1CC[C@@]23O[C@@H]2[C@@H](C[C@@]2(C)CC(=O)[C@H](CC(=O)C1)O2)OC(=O)[C@@]12CC[C@H](C(=C)C)CC(=O)C[C@H]4O[C@](C)(CC4=O)C[C@@H](OC3=O)[C@@H]1O2`, the TGI in the experiment on U251 CNS, with HCC-2998 colon, with MCF7 breast, in the experiment with TK-10 renal, in the experiment on HOP-92 NSCLC and with MOLT-4 leukemia was more than 100 µM each time. For the same molecule, the TGI in the experiment with SN12C renal, in the experiment with K-562 leukemia, in the experiment with MALME-3M melanoma, in the experiment on EKVX NSCLC, in the experiment with SK-OV-3 ovarian and with DU-145 prostate was more than 100 µM throughout.
As for `O=C(c1cscc1CCc1ccccc1)c1cscc1CCc1ccccc1`, the TGI in the experiment on U251 CNS, with HCC-2998 colon, in the experiment on MCF7 breast, with SW-620 colon, in the experiment on TK-10 renal and in the experiment with SR leukemia was more than 100 µM in each case. The TGI with MOLT-4 leukemia, in the experiment with SN12C renal, in the experiment with K-562 leukemia, in the experiment on MALME-3M melanoma, in the experiment with EKVX NSCLC and in the experiment with SK-OV-3 ovarian was more than 100 µM each time. The same molecule had a TGI in the experiment on DU-145 prostate of more than 100 µM.
As for `CC[C@H](C)[C@H]1NC(=O)[C@@H](N)[C@@H](C)OC(=O)[C@H](Cc2ccc(OC)cc2)N(C)C(=O)[C@@H]2CCCN2C(=O)[C@H](CC(C)C)NC(=O)[C@@H](C)C(=O)[C@H](C(C)C)OC(=O)C[C@@H]1O` (H-T[X35]LP[NMeY](Me); ester 1-C), the TGI in the experiment on U251 CNS was more than 100 µM; with HCC-2998 colon it was more than 100 µM; in the experiment on MCF7 breast, more than 100 µM; in the experiment on SW-620 colon, 50.1 µM; with TK-10 renal it was more than 100 µM; in the experiment with SR leukemia it was more than 100 µM. Further, the TGI in the experiment on MOLT-4 leukemia, with SN12C renal, with K-562 leukemia, in the experiment on MALME-3M melanoma, in the experiment on HS 578T breast and with EKVX NSCLC was more than 100 µM throughout. The molecule also yielded a TGI with SK-OV-3 ovarian of more than 100 µM.
As to `CC[C@H](C)[C@@H]([C@@H](CC(=O)N1CCC[C@H]1[C@H](OC)[C@@H](C)C(=O)NCCc1ccccc1)OC)N(C)C(=O)C(NC(=O)[C@H](C(C)C)N(C)C)C(C)C` (stereo partly specified), the TGI is 0.0068 µM with U251 CNS; 0.00228 µM in the experiment with HCC-2998 colon; more than 10 µM with MCF7 breast; more than 10 µM with SW-620 colon; more than 10 µM in the experiment with TK-10 renal; 0.00499 µM and 0.00515 µM in the experiment with SN12C renal. The TGI with K-562 leukemia is more than 10 µM; in the experiment on MALME-3M melanoma it was more than 10 µM; in the experiment on EKVX NSCLC, 7.57 µM; in the experiment on SK-OV-3 ovarian, 3.48 µM; in the experiment on DU-145 prostate, 0.000963 µM. Moreover, in the experiment on SK-OV-3 ovarian, the GI50 was 0.00047 µM.
Turning to `COC(=O)/C=C/CCC#Cc1ccccc1C#CCC/C=C/C(=O)OC`, the TGI in the experiment on U251 CNS was more than 100 µM; in the experiment with HCC-2998 colon, more than 100 µM; in the experiment on MCF7 breast, more than 100 µM; in the experiment with SW-620 colon it was more than 100 µM; in the experiment with TK-10 renal it was more than 100 µM; in the experiment with HOP-92 NSCLC, 85.4 µM. Besides, the TGI is more than 100 µM in the experiment with SR leukemia; 10.5 µM in the experiment with MOLT-4 leukemia; 55.7 µM in the experiment on SN12C renal; 4.86 µM in the experiment on K-562 leukemia; more than 100 µM in the experiment with MALME-3M melanoma; more than 100 µM in the experiment with EKVX NSCLC. In addition, the TGI in the experiment with SK-OV-3 ovarian and in the experiment with DU-145 prostate was more than 100 µM throughout.
For `CNc1cc([N+](=O)[O-])ccc1C(=O)N1CCC[C@H]1CO`, the TGI in the experiment with U251 CNS, with MCF7 breast, in the experiment with SW-620 colon, in the experiment on TK-10 renal, in the experiment on HOP-92 NSCLC and in the experiment on SR leukemia was more than 100 µM in each case. The TGI in the experiment on MOLT-4 leukemia, in the experiment on SN12C renal, in the experiment with K-562 leukemia, in the experiment with EKVX NSCLC, in the experiment with SK-OV-3 ovarian and in the experiment on DU-145 prostate was more than 100 µM throughout.
`Cc1cc(C)c(NS(=O)c2cccc(C(F)(F)F)c2)c(C)c1` (stereo unspecified): the TGI with U251 CNS, with MCF7 breast, in the experiment on SW-620 colon, in the experiment on TK-10 renal, with HOP-92 NSCLC and in the experiment on SR leukemia was more than 100 µM in each case. Further, the TGI in the experiment on MOLT-4 leukemia, in the experiment on SN12C renal, with K-562 leukemia, in the experiment with MALME-3M melanoma and in the experiment on DU-145 prostate was more than 100 µM throughout.
`C[N+](C)(C)CC(=O)N/N=C(\Cc1nc2ccc([N+](=O)[O-])cc2[nH]c1=O)C(=O)Nc1nc2ccc([N+](=O)[O-])cc2s1`: the TGI in the experiment with U251 CNS, in the experiment with HCC-2998 colon, in the experiment on MCF7 breast, in the experiment on SW-620 colon, in the experiment with TK-10 renal and in the experiment on HOP-92 NSCLC was more than 100 µM in each case. Also, the TGI in the experiment with SR leukemia, in the experiment with MOLT-4 leukemia, in the experiment on SN12C renal, in the experiment on K-562 leukemia, with EKVX NSCLC and with SK-OV-3 ovarian was more than 100 µM each time. Moreover, the TGI in the experiment with DU-145 prostate is more than 100 µM.
Turning to `Clc1cccc(-c2nc3cccc4c3n2Cc2ncccc2-4)c1`, the TGI with U251 CNS, with HCC-2998 colon, with MCF7 breast, with SW-620 colon, with TK-10 renal and in the experiment with HOP-92 NSCLC was more than 100 µM throughout. The TGI in the experiment on SR leukemia, with SN12C renal, in the experiment on K-562 leukemia, with MALME-3M melanoma, in the experiment with EKVX NSCLC and in the experiment on SK-OV-3 ovarian was more than 100 µM each time. This molecule registered a TGI in the experiment on DU-145 prostate of more than 100 µM.
In the case of `COC(=O)C1(C(=O)OC)N=C(C)OC1c1ccccc1O` (stereo unspecified), the TGI in the experiment with U251 CNS, in the experiment on HCC-2998 colon, in the experiment on MCF7 breast, with SW-620 colon, with TK-10 renal and in the experiment on HOP-92 NSCLC was more than 100 µM in each case. The TGI in the experiment with SR leukemia, in the experiment with MOLT-4 leukemia, with SN12C renal, in the experiment on K-562 leukemia, with EKVX NSCLC and with SK-OV-3 ovarian was more than 100 µM throughout. Besides, in the experiment on DU-145 prostate, the TGI is more than 100 µM.
In the case of `CN(C)c1ccc(C=Nc2ccc(-c3nc4ccccc4s3)cc2)cc1`, the TGI in the experiment with U251 CNS was more than 100 µM; with HCC-2998 colon it was 44.5 µM; in the experiment on MCF7 breast, 76.5 µM; in the experiment on SW-620 colon, more than 100 µM; in the experiment with TK-10 renal, 75.8 µM; in the experiment on HOP-92 NSCLC it was 59.4 µM. Moreover, the TGI in the experiment with SR leukemia is more than 100 µM; in the experiment with MOLT-4 leukemia, more than 100 µM; with SN12C renal, more than 100 µM; in the experiment with K-562 leukemia it was more than 100 µM; with MALME-3M melanoma it was 95.7 µM; with EKVX NSCLC it was more than 100 µM. Moreover, the TGI in the experiment with SK-OV-3 ovarian and in the experiment on DU-145 prostate was more than 100 µM each time.
For `Cc1ccc(Sc2ccccc2C23OC(C)(C4C(=O)N(c5ccccc5)C(=O)C42)N(C)C3=O)cc1` (stereo unspecified), the TGI in the experiment on U251 CNS, in the experiment on SW-620 colon, in the experiment on TK-10 renal, in the experiment with HOP-92 NSCLC, with SR leukemia and in the experiment on MOLT-4 leukemia was more than 100 µM each time. Besides, the TGI with SN12C renal, with K-562 leukemia, in the experiment on MALME-3M melanoma, with HS 578T breast, in the experiment with EKVX NSCLC and in the experiment on SK-OV-3 ovarian was more than 100 µM in each case. This molecule returned a TGI with DU-145 prostate of more than 100 µM.
Take `CC(=O)OCC1OC(n2c(C)c(C(C)=O)c(-c3ccco3)c(C#N)c2=S)C(OC(C)=O)C(OC(C)=O)C1OC(C)=O` (stereo unspecified): the TGI with U251 CNS is more than 100 µM; with HCC-2998 colon it was more than 100 µM; in the experiment with MCF7 breast, more than 100 µM; in the experiment with SW-620 colon, more than 100 µM; with TK-10 renal, more than 100 µM; with HOP-92 NSCLC, 87.5 µM. Further, the TGI in the experiment with SR leukemia, in the experiment with MOLT-4 leukemia, in the experiment on SN12C renal, in the experiment with K-562 leukemia, in the experiment on MALME-3M melanoma and in the experiment with EKVX NSCLC was more than 100 µM in each case. Moreover, the TGI with SK-OV-3 ovarian and with DU-145 prostate was more than 100 µM throughout.
